For 23 compounds, EC50 and IC50 results are on record in patent US20260022122A1 (Checkmate Therapeutics Inc., priority 2022, published 2026).

Experiment [1] deals with NAPRT negative lung cancer cell lines (H322, H661, H1155). As to the kind of experiment: Proliferation inhibition on NAPRT negative lung cancer cell lines (CellTiter-Glo). The experiment is classed as cell-based. Conditions: 72 hours. The protocol: (§1) A compound showing a low IC50 value was selected from the compounds of the above Examples and treated an NAPRT positive or negative lung cancer cell line with various concentrations, and then the change in cell viability for each cell line was measured. The results are presented in a graph (a few materials known as NamPT inhibitors were used as controls). A total of 9 cancer cells lines (three NAPRT negative cell lines: H322, H661, and H1155; and six NAPRT positive cell lines: H1993, H2122, H2030, H1975, H1299, and HBEC30) were used. 5% fetal bovine serum (Gibco, US) and 1% penicillin/streptomycin (Gibco) were added to a medium, and the cells were cultured in a 37° C. constant temperature incubator containing 5% CO2. For compound treatment, each type of cells were seeded at 3×10^3 cells/well in a 96-well plate (Corning) and then incubated in a 37° C. constant temperature incubator containing 5% CO2 for 18 hours. […] Afterwards, the cells were cultured in an incubator containing 5% CO2 at 37° C. for 72 hours. To confirm the effect of inhibiting the proliferation of cancer cells, a CellTiter-Glo Luminescent Cell Viability Assay (Promega) was used. After treating the cells with 10 μL of CellTiter-Glo luciferase reagent and leaving them for 15 minutes at room temperature, the luminescence of each well was measured using EnVision2105 (PerkinElmer). The change in cell viability by the compound diluted at the concentration of each step was converted into a relative % value for the amount of luminescence shown by DMSO treatment. EC50 is expressed as the concentration of each compound that induces 50% of the maximum luminescence level.
(§2) The results of measuring the proliferation inhibition ability of the compound of each Example on nine types of lung cancer cell lines, obtained through the above experiment, are shown in Table 2 in the unit of EC50 (μM). The resulting values are expressed as follows.
(Cellular ATP, detected with luciferase, serves as a proxy for viable cell number.)

Another experiment deals with NamPT (Homo sapiens (Human), UniProt P43490). The experiment can be described thus: Measurement of NamPT inhibitory ability IC50 (NamPT colorimetric assay kit, Abcam ab221819). Conditions: NamPT recombinant protein, WST-1 absorbance at 450 nm; class key in μM. The experiment is classed as biochemical. The protocol: To test the effect of the compound prepared in each Example on the substrate decomposition rate (Vmax/min) mediated by NamPT enzyme, IC50 was calculated. In this experiment, the NamPT colorimetric assay kit (ab221819) produced by Abcam was used, and Graph prism software was used for IC50 calculation. PRPP, ATP, NMNAT1, NamPT recombinant proteins, and various concentrations of the compound of each Example (half-log step dilution from 100 μM) were added to nicotinamide to synthesize nicotinamide adenine dinucleotide (NAD) from the nicotinamide, and a total of 60 μL of the reaction solution was reacted at room temperature for 1 hour. WST-1 formazan converted by NAD generated by adding WST-1 was measured. The result of the reaction was obtained by the following formula by measuring absorbance using EnVision2105 (PerkinElmer) at 450 nm for 60 minutes at 2-minute intervals.
Chain of NamPT (P43490 whole entry): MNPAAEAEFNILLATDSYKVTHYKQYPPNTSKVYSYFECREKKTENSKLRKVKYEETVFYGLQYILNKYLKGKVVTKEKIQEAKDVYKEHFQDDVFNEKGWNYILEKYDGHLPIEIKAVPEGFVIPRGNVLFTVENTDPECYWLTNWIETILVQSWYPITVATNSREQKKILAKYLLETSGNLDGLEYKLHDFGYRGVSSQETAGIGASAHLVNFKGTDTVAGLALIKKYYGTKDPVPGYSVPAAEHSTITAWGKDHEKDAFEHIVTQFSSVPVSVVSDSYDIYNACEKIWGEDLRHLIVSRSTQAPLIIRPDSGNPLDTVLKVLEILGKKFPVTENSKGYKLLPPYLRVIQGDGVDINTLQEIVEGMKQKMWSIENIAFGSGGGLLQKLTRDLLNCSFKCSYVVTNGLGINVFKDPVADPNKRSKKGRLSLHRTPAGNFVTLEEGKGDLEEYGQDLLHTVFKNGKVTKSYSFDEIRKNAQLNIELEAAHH
In Mathematical Formula 1, T1 and T2 are arbitrary times, and A1 and A2 represent the absorbance measured at T1 and T2 at 450 nm, respectively.
The results of measuring the NamPT inhibition activity of the compound of each Example obtained through the above experiment are shown in Table 1 in the unit of IC50 (nM), and the result values are expressed as follows.
A general note: Tetrazolium dyes change colour on reduction, which living cells bring about.

Experiment [2] relates to NAPRT positive cell lines (H1993, H2122, H2030, H1975, H1299, HBEC30). As to the kind of experiment: Proliferation inhibition on NAPRT positive lung cancer cell lines (CellTiter-Glo). The experiment is classed as cell-based. Conditions: 72 hours. The protocol:
as §1, §2

Each structure is given as a SMILES string.

In the case of `O=C(NCc1ccc(-c2nc3ccccc3o2)cc1)c1cnc2nccn2c1` [Example 2, N-[[4-(1,3-benzoxazol-2-yl)phenyl]methyl]imidazo[1,2-a]pyrimidin-6-carboxamide], the values for the EC50 in experiment [1] and in experiment [2] were less than 0.05 µM and greater than 101 µM, respectively. In addition, the IC50 at NamPT was in the range of 0.051 to 0.1 µM.

On to `CC(C)c1ccc2nc(-c3ccc(CNC(=O)c4cnc5nccn5c4)cc3)oc2c1` [Example 3], for which the EC50 in experiment [1] is less than 0.05 µM; in experiment [2] it was greater than 101 µM.

On to `Cc1ccc2oc(-c3ccc(CNC(=O)c4cnc5nccn5c4)cc3)nc2c1` [Example 6, N-[[4-(5-methyl-1,3-benzoxazol-2-yl)phenyl]methyl]imidazo[1,2-a]pyrimidin-6-carboxamide], for which the EC50 in experiment [1] is less than 0.05 µM; in experiment [2], greater than 101 µM. The IC50 at NamPT is less than 0.05 µM.

With `CS(=O)(=O)c1ccc2oc(-c3ccc(CNC(=O)c4cnc5nccn5c4)cc3)nc2c1` [Example 9, N-[[4-(5-methylsulfonyl-1,3-benzoxazol-2-yl)phenyl]methyl]imidazo[1,2-a]pyrimidin-6-carboxamide], the EC50 in experiment [1] is less than 0.05 µM; in experiment [2], greater than 101 µM. In addition, on NamPT, the 50% inhibitory concentration (IC50) was less than 0.05 µM.

In the case of `O=C(NCc1ccc(-c2nc3ccc(F)cc3o2)cc1)c1cnc2nccn2c1` [Example 17, N-[[4-(6-fluoro-1,3-benzoxazol-2-yl)phenyl]methyl]imidazo[1,2-a]pyrimidin-6-carboxamide], the EC50 in experiment [1] was 0.051 to 0.1 µM; in experiment [2], greater than 101 µM. Besides, the IC50 on NamPT was in the range of 0.051 to 0.1 µM.

`O=C(NCc1ccc(-c2nc3ccc(C(F)(F)F)cc3o2)cc1)c1cnc2nccn2c1` [Example 19, N-[[4-[6-(trifluoromethyl)-1,3-benzoxazol-2-yl]phenyl]methyl]imidazo[1,2-a]pyrimidin-6-carboxamide]: the EC50 in experiment [1] was 0.051 to 0.1 µM; in experiment [2], greater than 101 µM. On NamPT, the IC50 was less than 0.05 µM.

`COc1ccc2nc(-c3ccc(CNC(=O)c4cnc5nccn5c4)cc3)oc2c1` [Example 22, N-[[4-(6-methoxy-1,3-benzoxazol-2-yl)phenyl]methyl]imidazo[1,2-a]pyrimidin-6-carboxamide]: the EC50 in experiment [1] is 0.051 to 0.1 µM; in experiment [2], greater than 101 µM. The IC50 at NamPT is less than 0.05 µM.

Consider `CCNC(=O)c1ccc2oc(-c3ccc(CNC(=O)c4cnc5nccn5c4)cc3)nc2c1` [Example 31, N-ethyl-2-[4-[(imidazo[1,2-a]pyrimidin-6-carbonxylamino)methyl]phenyl]-1,3-benzoxazol-5-carboxamide], for which the EC50 in experiment [1] was less than 0.05 µM; in experiment [2] it was greater than 101 µM. On NamPT, the IC50 is less than 0.05 µM.

Turning to `CN(C)C(=O)c1ccc2oc(-c3ccc(CNC(=O)c4cnc5nccn5c4)cc3)nc2c1` [Example 32, 2-[4-[(imidazo[1,2-a]pyrimidin-6-carbonylamino)methyl]phenyl]-N,N-dimethyl-1,3-benzoxazol-5-carboxamide], the 50% effective concentration (EC50) was less than 0.05 µM in experiment [1] and 10 to 100 µM in experiment [2]. In addition, at NamPT, the IC50 was less than 0.05 µM.

In the case of `O=C(NCc1ccc(-c2nc3cc(C(=O)N4CCC4)ccc3o2)cc1)c1cnc2nccn2c1` [Example 33, N-[[4-[5-(azetidin-1-carbonyl)-1,3-benzoxazol-2-yl]phenyl]methyl]imidazo[1,2-a]pyrimidin-6-carboxamide], the EC50 was less than 0.05 µM in experiment [1] and greater than 101 µM in experiment [2]. The IC50 at NamPT is less than 0.05 µM.

For the compound `O=C(NCc1ccc(-c2nc3cc(C(=O)N4CCCC4)ccc3o2)cc1)c1cnc2nccn2c1` [Example 34, N-[[4-[5-(pyrrolidine-1-carbonyl)-1,3-benzoxazol-2-yl]phenyl]methyl]imidazo[1,2-a]pyrimidin-6-carboxamide], the 50% effective concentration (EC50) in experiment [1] was less than 0.05 µM; in experiment [2], 10 to 100 µM. In addition, the IC50 at NamPT is less than 0.05 µM.

On to `O=C(NCc1ccc(-c2nc3cc(S(=O)(=O)c4ccccc4)ccc3o2)cc1)c1cnc2nccn2c1` [Example 38, N-[[4-[5-(benzenesulfonyl)-1,3-benzoxazol-2-yl]phenyl]methy]imidazo[1,2-a]pyrimidin-6-carboxamide], for which the values for the EC50 in experiment [1] and in experiment [2] were 0.051 to 0.1 µM and greater than 101 µM, respectively. Also, the IC50 at NamPT is less than 0.05 µM.

As to `CCCOc1ccc2oc(-c3ccc(CNC(=O)c4cnc5nccn5c4)cc3)nc2c1` [Example 54, N-[[4-(5-propoxy-1,3-benzoxazol-2-yl)phenyl]methyl]imidazo[1,2-a]pyrimidin-6-carboxamide], at NamPT, the IC50 fell in the range of 0.051 to 0.1 µM.

With `O=C(NCc1ccc(-c2nc3cc(OCc4ccccc4)ccc3o2)cc1)c1cnc2nccn2c1` [Example 55, N-[[4-(5-benzyloxy-1,3-benzoxazol-2-yl)phenyl]methyl]imidazo[1,2-a]pyrimidin-6-carboxamide], on NamPT, the IC50 was greater than 1 µM.

For the compound `O=C(NCc1ccc(-c2nc3cc(-c4ccccc4)ccc3o2)cc1)c1cnc2nccn2c1` [Example 56, N-[[4-(5-phenyl-1,3-benzoxazol-2-yl)phenyl]methyl]imidazo[1,2-a]pyrimidin-6-carboxamide], at NamPT, the IC50 fell in the range of 0.11 to 1 µM.

Consider `O=C(NCc1ccc(-c2nc3ccc(Oc4ccccc4)cc3o2)cc1)c1cnc2nccn2c1` [Example 57, N-[[4-(6-phenoxy-1,3-benzoxazol-2-yl)phenyl]methyl]imidazo[1,2-a]pyrimidin-6-carboxamide], for which, at NamPT, the IC50 is greater than 1 µM.

With `O=C(NCc1ccc(-c2nc3ccc(Oc4cccnc4)cc3o2)cc1)c1cnc2nccn2c1` [Example 58, N-[[4-[6-(3-pyridyloxy)-1,3-benzoxazol-2-yl]phenyl]methyl]imidazo[1,2-a]pyrimidin-6-carboxamide], at NamPT, the IC50 was less than 0.05 µM.

In the case of `O=C(NCc1ccc(-c2nc3ccc(-c4ccccc4)cc3o2)cc1)c1cnc2nccn2c1` [Example 59, N-[[4-(6-phenyl-1,3-benzoxazol-2-yl)phenyl]methyl]imidazo[1,2-a]pyrimidin-6-carboxamide], the IC50 on NamPT is greater than 1 µM.

For `O=C(NCc1ccc(-c2nc3ccc(Cl)nc3o2)cc1)c1cnc2nccn2c1` [Example 60, N-[[4-(5-chlorooxazolo[5,4-b]pyridin-2-yl)phenyl]methyl]imidazo[1,2-a]pyrimidin-6-carboxamide], the IC50 at NamPT is less than 0.05 µM.

For `Cc1ccc2nc(-c3ccc(CNC(=O)c4ccc5nccn5c4)cc3)oc2c1` [Example 61, N-[[4-(6-methyl-1,3-benzoxazol-2-yl)phenyl]methyl]imidazo[1,2-a]pyridin-6-carboxamide], the IC50 at NamPT was 0.11 to 1 µM.

As to `O=C(NCc1ccc(-c2nc3cnc(Cl)cc3o2)cc1)c1cnc2nccn2c1` [Example 62], the IC50 on NamPT lay within 0.051 to 0.1 µM.

On to `O=C(NCc1ccc(-c2nc3ccc(Cl)cc3o2)cn1)c1cnc2nccn2c1` [Example 63, N-[[5-(6-chloro-1,3-benzoxazol-2-yl)-2-pyridyl]methyl]imidazo[1,2-a]pyrimidin-6-carboxamide], for which the IC50 on NamPT is less than 0.05 µM.

Consider `Cc1ccc2nc(-c3ccc(C(C)NC(=O)c4cnc5nccn5c4)cc3)oc2c1` (stereo not shown) [Example 64, N-[1-[4-(6-methyl-1,3-benzooxazol-2-yl)phenyl]ethyl]imidazo[1,2-a]pyrimidin-6-carboxamide], for which the IC50 on NamPT is greater than 1 µM.

For orientation: EC50 means the concentration giving half of the maximal effect. As a reminder, the IC50 is the concentration at which inhibition is half-maximal.
